Measured values: ChEMBL document CHEMBL1133455, “Synthesis of novel 5-substituted 3-amino-3,4-dihydro-2H-1-benzopyran derivatives and their interactions with the 5-HT1A receptor” (J Med Chem, 2000)
Activity calls are given as the source filed them. The calls are words filed in the database; no cut-off is given here.

Key:
[1] = target: T1, 5-hydroxytryptamine receptor 1A (Homo sapiens) (UniProt P08908); experiment: Percent inhibition of vasoactive intestinal polypeptide-induced (VIP-induced) cAMP formation in GH4ZD10 cells expressing 5-HT1A receptor at 50 uM relative to 5-HT; format: functional, cell-based
T1 sequence (whole entry): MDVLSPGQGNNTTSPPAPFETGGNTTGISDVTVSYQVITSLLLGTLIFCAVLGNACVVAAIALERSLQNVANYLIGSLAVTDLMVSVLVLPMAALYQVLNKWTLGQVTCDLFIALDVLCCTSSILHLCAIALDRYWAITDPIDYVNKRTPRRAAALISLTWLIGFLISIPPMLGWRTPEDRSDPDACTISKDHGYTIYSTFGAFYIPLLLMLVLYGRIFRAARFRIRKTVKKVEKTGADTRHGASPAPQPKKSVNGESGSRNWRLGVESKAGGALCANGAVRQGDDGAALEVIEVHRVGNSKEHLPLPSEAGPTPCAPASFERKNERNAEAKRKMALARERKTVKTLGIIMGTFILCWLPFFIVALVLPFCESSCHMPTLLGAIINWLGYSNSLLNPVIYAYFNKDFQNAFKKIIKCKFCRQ

[2] = target: T2, 5-hydroxytryptamine receptor 1A (Rattus norvegicus, UniProt P19327); experiment: In vitro binding affinity at 5-HT1A receptors assayed by displacement of [3H]8-OH-DPAT from 5-hydroxytryptamine 1A receptor in rat hippocampal membranes; format: cell membranes, Hippocampus, Membrane
T2 sequence (P19327 whole entry): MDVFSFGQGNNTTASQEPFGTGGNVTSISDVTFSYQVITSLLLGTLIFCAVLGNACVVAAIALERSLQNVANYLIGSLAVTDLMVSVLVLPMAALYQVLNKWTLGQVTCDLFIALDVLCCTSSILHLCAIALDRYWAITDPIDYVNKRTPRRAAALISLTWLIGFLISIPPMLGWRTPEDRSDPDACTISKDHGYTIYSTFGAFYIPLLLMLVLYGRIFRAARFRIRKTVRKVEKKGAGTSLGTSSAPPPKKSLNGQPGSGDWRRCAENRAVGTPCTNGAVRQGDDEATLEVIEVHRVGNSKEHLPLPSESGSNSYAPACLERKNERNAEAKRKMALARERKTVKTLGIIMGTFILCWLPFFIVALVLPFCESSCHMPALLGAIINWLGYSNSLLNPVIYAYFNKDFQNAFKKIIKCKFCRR

D(2) dopamine receptor [3] = target: T3, D(2) dopamine receptor (Homo sapiens, UniProt P14416); experiment: In vitro binding affinity at human cloned Dopamine receptor D2A by measuring its ability to displace [3H]raclopride from D2A receptor expressed in mouse fibroblast (LtK-) cells; format: cell-based
T3 sequence (P14416 whole entry): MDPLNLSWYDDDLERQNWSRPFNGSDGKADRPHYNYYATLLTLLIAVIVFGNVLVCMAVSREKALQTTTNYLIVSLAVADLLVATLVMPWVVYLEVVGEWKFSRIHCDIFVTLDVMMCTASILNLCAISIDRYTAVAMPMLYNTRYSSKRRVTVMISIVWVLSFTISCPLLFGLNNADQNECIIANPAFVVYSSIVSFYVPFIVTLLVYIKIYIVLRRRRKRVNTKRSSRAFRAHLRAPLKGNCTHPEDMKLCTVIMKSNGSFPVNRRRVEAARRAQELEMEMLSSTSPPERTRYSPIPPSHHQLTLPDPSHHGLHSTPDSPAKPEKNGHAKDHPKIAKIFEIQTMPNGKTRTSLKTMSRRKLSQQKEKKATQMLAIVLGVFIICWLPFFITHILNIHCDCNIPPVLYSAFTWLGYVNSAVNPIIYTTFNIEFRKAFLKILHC

[4] = target: 5-hydroxytryptamine receptor 2A (Rattus norvegicus, UniProt P14842); experiment: In vitro binding affinity at 5-hydroxytryptamine 2A receptor by displacement of [3H]ketanserin from rat cortex
Chain of 5-hydroxytryptamine receptor 2A (P14842 whole entry): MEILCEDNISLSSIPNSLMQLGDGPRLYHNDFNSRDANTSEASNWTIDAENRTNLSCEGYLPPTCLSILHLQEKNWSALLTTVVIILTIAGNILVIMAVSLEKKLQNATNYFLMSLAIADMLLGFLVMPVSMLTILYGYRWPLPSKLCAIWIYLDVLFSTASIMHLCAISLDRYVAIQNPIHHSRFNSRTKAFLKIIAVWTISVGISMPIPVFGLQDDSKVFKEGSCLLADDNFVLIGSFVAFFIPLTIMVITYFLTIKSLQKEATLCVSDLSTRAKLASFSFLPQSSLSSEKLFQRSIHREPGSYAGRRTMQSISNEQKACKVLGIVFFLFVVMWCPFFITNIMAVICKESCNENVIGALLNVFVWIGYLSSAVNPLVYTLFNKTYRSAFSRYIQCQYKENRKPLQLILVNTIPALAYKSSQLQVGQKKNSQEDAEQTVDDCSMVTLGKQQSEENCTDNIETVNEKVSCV

D(1A) dopamine receptor = D(1A) dopamine receptor (Rattus norvegicus, UniProt P18901); experiment: In vitro binding affinity at D1 receptor by measuring its ability to displace [3H]SCH-23390 from Dopamine receptor D1 in rat striatum
Chain of D(1A) dopamine receptor (P18901 whole entry): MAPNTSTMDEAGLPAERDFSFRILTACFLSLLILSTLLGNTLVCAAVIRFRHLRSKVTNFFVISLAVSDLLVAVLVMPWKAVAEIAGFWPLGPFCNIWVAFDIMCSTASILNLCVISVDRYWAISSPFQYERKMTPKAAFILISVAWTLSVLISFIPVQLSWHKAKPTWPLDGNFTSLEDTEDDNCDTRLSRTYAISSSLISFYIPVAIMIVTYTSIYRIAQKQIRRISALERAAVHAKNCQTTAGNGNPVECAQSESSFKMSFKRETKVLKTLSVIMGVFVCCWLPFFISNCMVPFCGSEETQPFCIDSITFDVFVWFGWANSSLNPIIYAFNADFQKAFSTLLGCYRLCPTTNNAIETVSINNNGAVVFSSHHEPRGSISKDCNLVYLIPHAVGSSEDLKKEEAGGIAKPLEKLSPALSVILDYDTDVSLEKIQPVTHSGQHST

D(2) dopamine receptor [5] = target: T3, D(2) dopamine receptor; experiment: In vitro binding affinity at human cloned Dopamine receptor D2A measured by ability to displace [3H]raclopride from D2A receptor expressed in mouse fibroblast (LtK-) cells; format: cell-based
[6] = target: T2, 5-hydroxytryptamine receptor 1A; experiment: In vitro binding affinity at 5-HT1A receptor by measuring its ability to displace [3H]-8-OH-DPAT from 5-hydroxytryptamine 1A receptor in rat hippocampal membranes+cortex; format: cell membranes, Hippocampus
[7] = target: T4, 5-hydroxytryptamine receptor 1A (Rattus norvegicus) (UniProt P19327); experiment: Percent of maximum response by 5-HT when tested for inhibition of vasoactive intestinal polypeptide-induced (VIP-induced) cAMP formation assessed in GH4ZD10 cells at 50 uM concentration; No effect; format: functional, cell-based
T4 sequence (whole entry): T2 sequence (P19327 whole entry)

[8] = target: T4, 5-hydroxytryptamine receptor 1A (Rattus norvegicus); experiment: Percent of maximum response by 5-HT when tested for inhibition of vasoactive intestinal polypeptide-induced (VIP-induced) cAMP formation assessed in GH4ZD10 cells at 10 uM concentration; format: functional, cell-based
[9] = target: T2, 5-hydroxytryptamine receptor 1A; experiment: In vitro binding affinity at 5-HT1A receptor by measuring its ability to displace [3H]8-OH-DPAT from 5-hydroxytryptamine 1A receptor in rat hippocampal membranes + cortex; format: cell membranes, Hippocampus

| SMILES | Efficacy [1] [%] | Ki [2] [nM] | Ki [4] [nM] | Ki (D(1A) dopamine receptor) [nM] | Ki (D(2) dopamine receptor [5]) [nM] | other results |
| --- | --- | --- | --- | --- | --- | --- |
| CCCN(C(C)C)[C@@H]1COc2cccc(C(C)=O)c2C1 | 128 | 11.9 |  |  |  | Ki (D(2) dopamine receptor [3]): 30.1 µM |
| CCCN(C1CCCC1)[C@@H]1COc2cccc(C(=O)NC)c2C1 | 110 | 18.5 |  |  |  |  |
| CCCN(C(C)C)[C@H]1COc2cccc(C(C)=O)c2C1 |  | 0.3 |  |  |  |  |
| CNC(=O)c1cccc2c1C[C@H](N(CCCCN1C(=O)CC3(CCCC3)CC1=O)CC(C)C)CO2 | 123 | 2.48 |  |  |  |  |
| CCCN(C(C)C)[C@H]1COc2cccc(C(=O)NC(C)C)c2C1 [EBALZOTAN] | 74 | 7.77 | > 10000 | > 50000 | > 50000 |  |
| CCCN(CCC)[C@H]1COc2cccc(C(=O)NC(C)C)c2C1 | 58 | 14 | > 1000 | > 1000 | > 1000 |  |
| CCCN(C(C)C)[C@@H]1COc2cccc(OC)c2C1 |  |  |  |  |  | Ki [6]: 134 nM |
| CCCN(C(C)C)[C@@H]1COc2cccc(C(=O)NC(C)C)c2C1 |  |  | > 10000 | > 50000 | > 50000 | Efficacy [7]: inactive |
| CCN(C(C)C)[C@H]1COc2cccc(C(=O)NC(C)C)c2C1 |  | 200 | > 1000 | > 1000 | > 1000 | Efficacy [8]: 34% |
| CCCN(C(C)C)[C@H]1COc2cccc(C(=O)OC)c2C1 | 128 | 0.32 |  |  |  |  |
| CCCN(CCC)[C@@H]1COc2cccc(C(=O)NC(C)C)c2C1 | 95 |  |  |  |  | Ki [9]: 64 nM |
| CCCN(CC(C)C)[C@H]1COc2cccc(C(=O)NC)c2C1 | 96 | 2.37 | > 50000 |  |  |  |
| CCCN(CC(C)(C)C)[C@H]1COc2cccc(C(=O)NC)c2C1 | 88 | 31 |  |  |  |  |
| CCCN(C(C)C)[C@H]1COc2cccc(C(N)=O)c2C1 | 75 | 0.48 | > 1000 | > 1000 | > 50000 |  |
| CC(C)N[C@H]1COc2cccc(C(N)=O)c2C1 | 20 | 397 | > 1000 | > 1000 | > 1000 |  |
| CC(C)NC(=O)c1cccc2c1C[C@@H](NC(C)C)CO2 |  | 4300 | > 10000 | > 1000 | > 1000 | Efficacy [7]: inactive |
| CCCN(CCCCN1C(=O)CC2(CCCC2)CC1=O)[C@H]1COc2cccc(C(=O)NC)c2C1 | 62 | 0.34 |  |  |  |  |
| CCCN(CC(C)(C)C)[C@@H]1COc2cccc(C(=O)NC)c2C1 |  | 3.96 |  |  |  | Efficacy [8]: 91% |
| CNC(=O)c1cccc2c1C[C@H](NCCCCN1C(=O)CC3(CCCC3)CC1=O)CO2 | 82 | 24.3 |  |  |  |  |
| CCCN(C1CCCC1)[C@H]1COc2cccc(C(=O)OC)c2C1 |  | 0.41 |  |  |  |  |
| CCCN(C1CCCC1)[C@H]1COc2cccc(C(N)=O)c2C1 |  | < 0.3 | > 1000 | > 4000 | > 1000 | Efficacy [8]: 80% |
| CCCN(CCCCN1C(=O)CC2(CCCC2)CC1=O)[C@@H]1COc2cccc(C(=O)NC)c2C1 | 103 | < 0.3 |  |  |  |  |
| CCCN(C1CCCC1)[C@H]1COc2cccc(C(=O)NC)c2C1 | 70 | < 0.3 |  |  |  |  |
| NC(=O)c1cccc2c1C[C@@H](N)CO2 |  |  | > 1000 | > 1000 | > 1000 | Efficacy [7]: inactive |
| CCCN[C@H]1COc2cccc(C(N)=O)c2C1 | 42 | 98.4 | > 1000 | > 1000 | > 1000 |  |
| CNC(=O)c1cccc2c1C[C@@H](NCCCCN1C(=O)CC3(CCCC3)CC1=O)CO2 | 61 | 525 |  |  |  |  |
| CCCN(C(C)C)[C@H]1COc2cccc(OC)c2C1 |  |  |  |  |  | Ki [6]: 3.1 nM |
| CCCN(C(C)C)[C@H]1COc2cccc(C(=O)OC(C)C)c2C1 |  |  |  |  |  | Ki [6]: 18 nM |
